In patent US10889611B2, “Sialyltransferase inhibitors and uses thereof” (Academia Sinica, priority 2015, dated 2021):

Legend:
LN cells [1] = assay: MTT assay cytotoxicity, LN cells; assay type: cell-based, human; conditions: 1, 5, 10, 25 and 50 μM for 24 and 48 hours, FIG. 6
Procedure: (§1) The LN cell line was established by orthotopically injected 5×10^5 PANC-1 cells to the pancreas of SCID mice. After one month, mestastasis was found in lymph nodes, cancerous cells were then isolated from lymph nodes. The genomic DNA of the isolated cancer cells from lymph nodes were extracted and sent for genotyping analysis, which confirmed that LN cells were indeed derived from PANC-1 cells (data not shown).
(§2) The absorbance of the solution at 570 nm was measured by spectrophotometer.
(§3) The cytotoxicity of FCW551 on PANC-1 and LN cells were determined by MTT assay in according to procedures described in the “Materials and Methods” section.

PANC-1 cells [2] = assay: MTT assay cytotoxicity, PANC-1 cells; assay type: cell-based, human; conditions: 1, 5, 10, 25 and 50 μM for 24 and 48 hours, FIG. 6
Procedure: as §2, §3

LN cells [3] = assay: Migration and invasion analysis, LN cells; assay type: cell-based, human; conditions: 1 and 20 μM for 24 and 48 hours, FIG. 7
Description: as §1
(§4) Migration assays were done using a transwell, in which a polycarbonate filter pre-coated with Matrigel (8-μm pores, Millicell; Millipore, Billerica, Mass.) was inserted therein. Cells were serum-starved for 24 h and then seeded (5×10^5 cells per upper chamber) and treated with or without the present compound(s) (concentrations as indicated), and the assays were run for 6 h. Cells that had migrated to the underside of the inserted filter were stained with hematoxylin solution. The cells in the upper side of the inserted membrane were rubbed with a cotton swab. The migrated cells on the underside were pictured in a 200× magnification field and quantified.
(§5) In this example, the ability of the FCW551 in suppressing the migration and/or invasion of pancreatic cancer cells was investigated. Briefly, PANC-1 and LN cells were respectively treated with 1 and 20 μM FCW551 for 24 and 48 hours before subjecting to the migration and invasion analysis. Results are illustrated in FIG. 7.

PANC-1 cells [4] = assay: Migration and invasion analysis, PANC-1 cells; assay type: cell-based, human; conditions: 1 and 20 μM for 24 and 48 hours, FIG. 7
Procedure: as §4, §5

## C[C@H](CCC(=O)NCCOCCOCCN=[N+]=[N-])C1CCC2C3CC[C@@H]4C[C@H](NC(=O)[C@H](CC(=O)O)Nc5ccc([N+](=O)[O-])c6nonc56)CC[C@]4(C)C3CC[C@@]21C (stereo partly drawn) [Compound 17, (3S)-4-(((3R,5R,10S,13R)-17-((R)-5-((2-(2-(2-azidoethoxy)ethoxy)ethyl)amino)-5-oxopentan-2-yl)-10,13-dimethylhexadecahydro-1H-cyclopenta[a]phenanthren-3-yl)amino)-3-((7-nitrobenzo[c][1,2,5]oxadiazol-4-yl)amino)-4-oxobutanoic acid]
LN cells [1]
  cytotoxicity: no significant cytotoxicity
PANC-1 cells [2]
  cytotoxicity: no significant cytotoxicity
other
  melting point: 90 to 91 °C
LN cells [3]
  invasion ability: greatly suppressed
  migration ability: greatly suppressed
PANC-1 cells [4]
  invasion ability: greatly suppressed
  migration ability: greatly suppressed
